How the values were obtained:
[1] = biological target: T1, Aci01347 (Acinetobacter baumannii, UniProt D0C9N4); assay: competition with […]-choline uptake in E. coli MKH13 expressing Aci01347; assay type: cell-based; settings: read-out: % inhibition at 0.5 mM
T1 construct: gene HMPREF0010_01347; N-terminal His6 tag, pBAD/HisA; expressed in E. coli MKH13 (no compatible solute transporters)
T1 sequence (D0C9N4 1-550): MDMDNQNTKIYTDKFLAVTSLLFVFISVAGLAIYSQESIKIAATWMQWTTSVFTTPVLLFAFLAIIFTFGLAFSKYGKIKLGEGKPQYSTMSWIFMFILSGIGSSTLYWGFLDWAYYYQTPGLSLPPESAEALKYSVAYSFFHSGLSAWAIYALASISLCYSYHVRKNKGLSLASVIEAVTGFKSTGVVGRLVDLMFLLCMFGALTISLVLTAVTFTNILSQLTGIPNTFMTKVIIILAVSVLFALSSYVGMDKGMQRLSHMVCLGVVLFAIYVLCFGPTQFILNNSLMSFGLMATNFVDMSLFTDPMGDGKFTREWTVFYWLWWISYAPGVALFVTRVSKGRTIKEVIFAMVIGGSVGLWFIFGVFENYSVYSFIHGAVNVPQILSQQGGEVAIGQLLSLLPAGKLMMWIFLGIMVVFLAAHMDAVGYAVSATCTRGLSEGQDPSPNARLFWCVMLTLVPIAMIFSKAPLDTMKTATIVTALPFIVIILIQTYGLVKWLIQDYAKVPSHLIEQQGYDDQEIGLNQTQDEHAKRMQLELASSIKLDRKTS

[2] = biological target: T1, Aci01347; assay: […]-choline uptake in E. coli MKH13 expressing Aci01347; assay type: cell-based; settings: 500 µM substrate; KPi 25 mM pH 7.5, 0.2 osmol/kg, 37 °C, glucose-energised cells; labelled compound

For CC1=NCC[C@@H](C(=O)O)N1 [ectoine], the inhibition at 500 µM [1] was 9.2%.

C[N+](C)(C)CC(=O)[O-] [glycine betaine] gave an inhibition at 500 µM [1] of 14.5%.

With C[N+]1(C)CCC[C@H]1C(=O)[O-] [proline betaine] the inhibition at 500 µM [1] was 2.4%.

With C[N+](C)(C)CCO [choline, 2-hydroxyethyl trimethylammonium chloride] the “[14C]-choline uptake in E. coli MKH13 expressing Aci01347” value [2] was “These data demonstrate that Aci01347 translocates choline”.

O=C(O)[C@@H]1CCCN1 [proline] was tested, and the inhibition at 500 µM [1] was 4.6%.
